In US9079854B2 (priority 2007, dated 2015):
Like-named read-outs stand apart in the source and are kept apart here.

How the values were obtained:
[1] = target: T1, human CB1 (hCB1) receptor (Homo sapiens, UniProt P21554); assay: CB1 binding assay, competitive binding of [3H]CP 55940; conditions: for % Inhibition of Control Specific Binding / % of Control Specific Binding 1st / % of Control Specific Binding 2nd / % of Control Specific Binding Mean: CB1, Test Concentration 1.0E−05 (MD); for % of Control Specific Binding 1st: 1st determination; for % of Control Specific Binding 2nd: 2nd determination; for inhibition at 10 µM / inhibition at 1 µM: specific binding of [3H]-CP55940; for inhibition at 1 µM: CHO membranes
T1 construct: expressed in transfected cells; host or cells: CHO (Chinese hamster ovary) cells, membranes
T1 sequence (P21554 whole entry): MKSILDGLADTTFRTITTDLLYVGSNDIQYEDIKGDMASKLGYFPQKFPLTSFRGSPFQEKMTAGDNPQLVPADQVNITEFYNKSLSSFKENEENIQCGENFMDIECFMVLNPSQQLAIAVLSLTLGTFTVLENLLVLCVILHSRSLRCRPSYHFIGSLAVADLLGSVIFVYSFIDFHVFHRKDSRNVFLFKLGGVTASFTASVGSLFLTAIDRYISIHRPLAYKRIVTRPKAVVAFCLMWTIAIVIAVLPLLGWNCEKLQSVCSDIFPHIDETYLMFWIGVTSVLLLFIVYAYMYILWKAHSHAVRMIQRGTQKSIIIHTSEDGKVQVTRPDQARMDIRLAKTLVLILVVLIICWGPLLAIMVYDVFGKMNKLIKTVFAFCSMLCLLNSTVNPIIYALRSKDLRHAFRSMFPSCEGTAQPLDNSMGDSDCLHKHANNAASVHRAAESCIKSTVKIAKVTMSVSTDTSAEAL
Experimental: Cell membrane homogenates (25 μg protein) are incubated for 120 min at 37° C. with 0.5 nM [^3H]CP 55940 (the reference standard [Rinaldi-Carmona, 1996 #1320]) in the absence or presence of the test compound in a buffer containing 50 mM Tris HCl (pH 7.4), 5 mM MgCl2, 2.5 mM EDTA, and 0.3% bovine serum albumin (BSA). […]
(§1) […] [^3H]-CP55940 at a concentration of 0.5 nM and [^3H]-WIN55212 at a concentration of 0.8 nM were used as radioligands for hCB1 and hCB2 assays, respectively. The results are expressed as a percent inhibition of control specific binding. Compounds which displaced the radioligand by more than 50% for either hCB1 or hCB2 receptors were arbitrary chosen for functional activity determination.

[2] = target: T2, human CB2 (hCB2) receptor (Homo sapiens, UniProt P34972); assay: CB2 binding assay, competitive binding of [3H]WIN 55212-2; conditions: for % Inhibition of Control Specific Binding / % of Control Specific Binding 1st / % of Control Specific Binding 2nd / % of Control Specific Binding Mean: CB2, Test Concentration 1.0E−05 (MD); for % of Control Specific Binding 1st: 1st determination; for % of Control Specific Binding 2nd: 2nd determination; for inhibition at 10 µM / inhibition at 1 µM: specific binding of [3H]-WIN55212-2; for inhibition at 1 µM: CHO membranes
T2 construct: expressed in transfected cells; host or cells: CHO (Chinese hamster ovary) cells, membranes
T2 sequence (P34972 whole entry): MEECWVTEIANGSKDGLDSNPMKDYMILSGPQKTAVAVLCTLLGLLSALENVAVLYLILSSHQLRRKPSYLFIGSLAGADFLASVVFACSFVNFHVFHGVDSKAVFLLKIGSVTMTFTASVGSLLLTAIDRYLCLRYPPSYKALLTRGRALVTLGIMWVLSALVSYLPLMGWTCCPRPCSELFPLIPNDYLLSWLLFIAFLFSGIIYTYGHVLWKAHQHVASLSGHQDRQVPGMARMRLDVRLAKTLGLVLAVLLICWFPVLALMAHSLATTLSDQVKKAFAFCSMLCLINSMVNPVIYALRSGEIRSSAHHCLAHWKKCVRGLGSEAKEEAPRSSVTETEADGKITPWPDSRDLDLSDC
Experimental: Cell membrane homogenates (15 μg protein) are incubated for 120 min at 37° C. with 0.8 nM [^3H]WIN 55212-2 (the reference standard [Munro, 1993 #1321]) in the absence or presence of the test compound in a buffer containing 50 mM HEPES/Tris HCL (pH 7.4), 5 mM MgCl2, 2.5 mM EGTA, and 0.1% BSA. Nonspecific binding is determined in the presence of 10 μM WIN 55212-2. After being incubated, the samples are filtered rapidly under vacuum through glass fiber filters (GF/B; Packard) presoaked with 0.3% PEI and rinsed several times with ice-cold buffer containing 50 mM Tris HCl (pH 7.4) and 0.5% BSA using a 96-sample cell harvester (Unifilter; Packard). The filters are dried then counted for radioactivity in a scintillation counter (Topcount; Packard) using a scintillation cocktail (Microscint 0; Packard). The results are expressed as a percentage of the inhibition of the control radioligand-specific binding. The reference standard compounds are tested in each experiment at several concentrations to obtain a competition curve from which its IC50 is calculated.
as §1

[3] = read-out: % inhibition hCB2 receptor, at 10 μM
[4] = at 10 μM, read-out: % inhibition hCB2 receptor
[5] = read-out: % inhibition hCB2 receptor, at 1 μM

SMILES	% Inhibition of Control Specific Binding [1] [%]	% of Control Specific Binding 1st [1] [%]	% of Control Specific Binding 2nd [1] [%]	% of Control Specific Binding Mean [1] [%]	inhibition at 10 µM [1] [%]	% Inhibition of Control Specific Binding [2] [%]	% of Control Specific Binding 1st [2] [%]	% of Control Specific Binding 2nd [2] [%]	% of Control Specific Binding Mean [2] [%]	inhibition at 10 µM [2, 3] [%]	inhibition at 10 µM [2, 4] [%]	inhibition at 1 µM [1] [%]	inhibition at 1 µM [2, 5] [%]	inhibition at 1 µM ([2]; at 1 μM, read-out: % inhibition hCB2 receptor) [%]
CCCCCCN1C(=O)/C(=N\NC(=O)Nc2ccccc2)c2ccccc21 [Example 4, Phenyl carbamoyl[1-n-hexyl-2-oxo-1,2-dihydro-indol-3-ylidene]-hydrazide]	37	64.3	61.4	62.9	< 40	−8	105.7	109.7	107.7	< 40	–	–	–	–
O=C1/C(=N\NC(=S)Nc2ccccc2)c2ccccc2N1CCC1CCCCC1 [Example 1, Phenyl thiocarbamoyl[1-(2-cyclohexyl-ethyl)-2-oxo-1,2-dihydro-indol-3-ylidene]-hydrazide]	36	68.6	59.6	64.1	< 40	15	83.3	87.6	85.4	–	< 40	–	–	–
CCCCCCCCCCCCN1C(=O)/C(=N\NC(=O)c2ccccc2)c2ccccc21 [Example 24, N′-[(3Z)-1-(1-dodecyl)-2-oxo-1,2-dihydro-3H-indol-3-ylidene]benzohydrazide]	–	–	–	–	–	–	–	–	–	–	–	23.8 ± 4.5	24.3 ± 4.1	–
CCCCCCN1C(=O)/C(=N\NC(=O)c2ccccc2)c2cc(OC)ccc21 [Example 32, N′-[(3Z)-1-hexyl-5-methoxy-2-oxo-1,2-dihydro-3H-indol-3-ylidene]benzohydrazide]	–	–	–	–	–	–	–	–	–	–	–	26 ± 3.1	17 ± 1.2	–
CCCCCCN1C(=O)/C(=N\NC(=O)c2cc3ccccc3s2)c2ccccc21 [Example 18, N′-[(3Z)-1-hexyl-2-oxo-1,2-dihydro-3H-indol-3-ylidene]-1-benzothiophene-2-carbohydrazide]	–	–	–	–	–	–	–	–	–	–	–	< 30	< 30	–
O=C(N/N=C1\C(=O)N(CCN2C(=O)c3ccccc3C2=O)c2ccccc21)c1ccccc1 [Example 27, N′-{[3Z]-1-[2-(1,3-dioxo-1,3-dihydro-2H-isoindol-2-yl)ethyl]-2-oxo-1,2-dihydro-3H-indol-3-ylidene}benzohydrazide]	–	–	–	–	–	–	–	–	–	–	–	3 ± 4.1	–	3 ± 3.2
CCCCCCN1C(=O)/C(=N\NC(=O)c2ccccc2)c2cc(C)ccc21 [Example 31, N′-[(3Z)-1-hexyl-5-methyl-2-oxo-1,2-dihydro-3H-indol-3-ylidene]benzohydrazide]	–	–	–	–	–	–	–	–	–	–	–	22 ± 0.9	1 ± 2.7	–
O=C(N/N=C1\C(=O)N(CCC2CCCCC2)c2ccccc21)Nc1ccccc1 [Example 3]	34	54.1	78.5	66.3	< 40	−3	98.6	107.1	102.8	< 40	–	–	–	–
CCCCCCN1C(=O)/C(=N\NC(=O)CCCCC)c2ccccc21 [Example 12, N′-[(3Z)-1-hexyl-2-oxo-1,2-dihydro-3H-indol-3-ylidene]hexanohydrazide]	–	–	–	–	–	–	–	–	–	–	–	45.2 ± 9.5	36.6 ± 8.8	–
CCCCCCN1C(=O)/C(=N\NC(=O)c2ccc3ccccc3c2)c2ccccc21 [Example 16, N′-[(3Z)-1-hexyl-2-oxo-1,2-dihydro-3H-indol-3-ylidene]-2-naphthohydrazide]	–	–	–	–	–	–	–	–	–	–	–	< 30	< 30	–
O=C1/C(=N\NS(=O)(=O)c2ccccc2)c2ccccc2N1CCC1CCCCC1 [Example 8]	16	77.2	90	83.6	< 40	9	89.2	93.3	91.2	–	< 40	–	–	–
CCCCCCN1C(=O)/C(=N\NC(=O)c2ccc(Cl)cc2)c2ccccc21 [Example 13, 4-chloro-N′-[(3Z)-1-hexyl-2-oxo-1,2-dihydro-3H-indol-3-ylidene]benzohydrazide]	–	–	–	–	–	–	–	–	–	–	–	46.6 ± 4.3	32.7 ± 5.3	–
CCCCCCN1C(=O)/C(=N\NS(=O)(=O)c2ccccc2)c2ccccc21 [Example 9, Phenyl sulfonyl[1-n-hexyl-2-oxo-1,2-dihydro-indol-3-ylidene]-hydrazide]	8	87.7	96.1	91.9	< 40	−14	126.5	100.6	113.5	–	< 40	–	–	–
CCCCCCN1C(=O)/C(=N\NC(=O)c2ccccc2)c2cc(Cl)ccc21 [Example 34, N′-[(3Z)-5-chloro-1-hexyl-2-oxo-1,2-dihydro-3H-indol-3-ylidene]benzohydrazide]	–	–	–	–	–	–	–	–	–	–	–	9 ± 1.4	6 ± 1.4	–
CCCCCCN1C(=O)/C(=N\NC(=S)Nc2ccccc2)c2ccccc21 [Example 2, Phenyl thiocarbamoyl[1-n-hexyl-2-oxo-1,2-dihydro-indol-3-ylidene]-hydrazide]	–	45.8	56.1	51	49 ± 5.2	38	59.8	64.7	62.3	–	37.7 ± 2.5	–	–	–
CCCCCN1C(=O)/C(=N\NC(=O)c2ccccc2)c2cc(I)ccc21 [Example 35, N′-[(3Z)-5-iodo-2-oxo-1-pentyl-1,2-dihydro-3H-indol-3-ylidene]benzohydrazide]	–	–	–	–	–	–	–	–	–	–	–	25 ± 0.2	10 ± 0.2	–
